From US12612374B2, “Thiazole and diphenyl substituted sulfoxides for use in improving cognition functions and against addictions to substances” (Cogmotiv FlexCo, priority 2019, dated 2026) come the findings set out here.

Molecules are shown by their SMILES.

T1 sequence (P23975 whole entry): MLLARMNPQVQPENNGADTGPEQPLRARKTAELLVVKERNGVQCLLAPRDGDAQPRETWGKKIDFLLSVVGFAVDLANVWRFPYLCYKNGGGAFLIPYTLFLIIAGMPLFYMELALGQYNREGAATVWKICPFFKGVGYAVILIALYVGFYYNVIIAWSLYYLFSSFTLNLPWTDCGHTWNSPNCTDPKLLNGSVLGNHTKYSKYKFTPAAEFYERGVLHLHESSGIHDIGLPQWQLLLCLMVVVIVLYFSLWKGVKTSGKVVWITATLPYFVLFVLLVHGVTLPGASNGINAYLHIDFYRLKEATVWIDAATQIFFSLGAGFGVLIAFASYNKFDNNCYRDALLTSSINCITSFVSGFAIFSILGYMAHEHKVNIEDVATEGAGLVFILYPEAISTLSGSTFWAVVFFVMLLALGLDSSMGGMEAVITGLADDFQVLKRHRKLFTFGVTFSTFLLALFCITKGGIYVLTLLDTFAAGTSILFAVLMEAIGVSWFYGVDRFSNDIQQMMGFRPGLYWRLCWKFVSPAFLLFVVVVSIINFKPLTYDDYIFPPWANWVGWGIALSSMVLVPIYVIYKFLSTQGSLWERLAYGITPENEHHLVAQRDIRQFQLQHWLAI

This assay addresses T1, human NET (Homo sapiens, UniProt P23975).
T1 construct: expressed in transfected cells
Kind of assay: Monoamine transporter reuptake inhibition, [3H]-MPP+ uptake (NET). Particulars: HEK 293 stably expressing human NET; 0.02 μM [3H]-MPP+, 3 min; means of at least three independent experiments; NS = Not specific in the used concentration range; read-out: NET IC50 ± SD. It counts as cell-based.
On to `[O-][S@+](Cc1cncs1)[C@@H](c1ccccc1)c1cccc(Br)c1` [Compound 1_2], for which the IC50 (in general, the point on the concentration scale where inhibition reaches its midpoint) turned out to be 148 ± 68.4 µM. As for `[O-][S@@+](Cc1cncs1)[C@@H](c1ccccc1)c1cccc(Br)c1` (single isomer, unassigned) [Compound 1_1], the figure is 11.7 ± 7.3 µM; as for `[O-][S@+](Cc1cncs1)[C@H](c1ccccc1)c1cccc(Br)c1` [Compound 2_2], 13.9 ± 15.9 µM; as for `[O-][S+](Cc1cncs1)C(c1ccccc1)c1cccc(Br)c1` (mixture of isomers) [(R), 5-((((3-bromophenyl)(phenyl)methyl)sulfinyl)methyl)thiazole], 17.2 ± 4.5 µM.
